Experimental data reported in patent US12590953B2, “Methods for screening cereblon modifying compounds” (CELGENE CORPORATION, priority 2018, dated 2026).
Entries after “also recorded” stand apart in the source; their conditions may differ.

System: ZFP91
Assay: ZFP91 immunohistochemistry in rabbit testis
Type: in vivo
Conditions: treated male rabbits (150 mg/kg)
Experimental: Male New Zealand white rabbits were treated with vehicle (1% Carboxymethylcellulose in deionized water), or Thalidomide at either 30 or 150 mg/kg/day for 56 days to investigate testicular degeneration. Testis were collected 24 hours after the last dose, fixed in 10% NBF, processed, embedded in paraffin and sectioned at 4 microns for immunohistochemistry.
Rabbit embryos were stained for SALL4, and mouse testis were stained for SALL4 and ZFP91. Immunohistochemistry (IHC) was performed on the Bond-III automated slide stainer (Leica Microsystems, Buffalo Grove, Ill.) using the Bond Polymer Refine Detection system (Leica Microsystems, DS9800). Formalin fixed paraffin embedded (FFPE) tissues were sectioned at four micron thick and deparaffinized on the Bond-Max instrument. Antigen retrieval was performed with Epitope Retrieval 2 (ER2, pH 9.0) for 20 min at 100° C. The slides were blocked for endogenous peroxidase activity with Peroxide Block for 5 minutes at room temperature. Sections were then incubated with the mouse monoclonal anti-SALL4 EE-30 antibody (Santa Cruz, sc-101147) at a 1:100 dilution for 60 min at room temperature, or with the rabbit monoclonal anti-ZFP91 antibody (Celgene custom clone 122-8-6) at 0.25 ug/ml. […]

O=C1CCC(N2C(=O)c3ccccc3C2=O)C(=O)N1 (stereo not shown) [thalidomide]
ZFP91 protein levels in testis: correspondingly depleted; also recorded: caused degradation of both ZFP91 and SALL4
